Assay results: patent EP0409227A2, “Pyrimidine nucleosides, their preparation and pharmaceutical preparations” (MATTHES, Eckart, Dr., priority 1989, dated 1991)

How the values were obtained:
[1] = system: MT4 Zellen; test: Cytotoxicity: inhibition of proliferation of MT4 cells; type: cell-based
Experimental: Unter dem Aspekt einer möglichen Anwendung der Verbindungen am Menschen wurden ihre antiproliferativen Wirkungen an menschlichen Zellkulturen wie früher beschrieben getestet (E. Matthes et al. Biochem.Biophys.Res.Commun. 153, 825 (1988)). Dabei zeigte sich, daß z.B. 2′,3′-Didesoxy-3-fluor-5-methylcytidin gegenüber der T-Zellinie MT4 eine CD₅₀ von 190 µM aufweist. In einem weiteren Test, in dem eine mögliche Wachstumshemmung koloniebildender Zellen des Knochenmarks der Maus (CFU-GM) untersucht wurde (E. Matthes et al. Biochem.Biophys.Res.Commun. 165, 488 (1989), erwies sich diese Verbindung ebenfalls als kaum proliferationshemmend (CD₅₀ > 500 µM). Die Wirkung weiterer Verbindungen auf die Proliferation von MT4-Zellen ist in Tabelle 3 zusammengefaßt. Tabelle 3

[2] = system: HBsAg-Sekretion von Hep G2 (2.2.15)-Zellen; test: Inhibition of HBsAg secretion of Hep G2 (2.2.15) cells (solid-phase radioimmunoassay of the medium); type: cell-based, HBV
Experimental: (§1) Die Testung der antiviralen Wirksamkeit der Nucleoside auf zelluärer Ebene erfolgte an einer menschlichen Hepatoblastom-Zellinie, die mit dem HBV-Genom tranfiziert wurde und sowohl das Oberflächenantigen des Virus (HBsAg) als auch die HBV-DNA permanent produziert und infektiöse Viruspartikel in das Medium abgibt (Hep G2-Zellen, Klon 2.2.15, Sells et al. Proc.Natl.Acad. Sci. 84, 1005 (1987)). Die Zellen (5x10⁵/ml) wurden in RPMI 1640-Medium mit 2 mM Glutamin und 10% fetalem Kälberserum allein oder zusammen mit den Nucleosid-Analoga für 4 Tage inkubiert, danach wurden den Ansätzen für 24 Stunden ³H-Thymidin bzw. ³H-Desoxyadenosin (3 µCi/ml) zugesetzt, die Zellen abzentrifugiert und darin die säureunlösliche Radioaktivität und damit der Einfluß auf die DNA-Synthese bestimmt. Im Inkubationsmedium wurde das HBsAg durch Festphasenradioimmunoassay (Travenol-Genentech Diagnostics, Cambridge, MA) entsprechend den Instruktionen des Herstellers ermittelt. Die Tabelle 4 faßt die Ergebnisse zusammen, die belegen, daß die getesteten Verbindungen hochwirksame und selektive Hemmstoffe der HBV-Vermehrung sind.

[3] = system: Hep G2 (2.2.15)-Zellen; test: DNA synthesis of Hep G2 (2.2.15) cells (acid-insoluble radioactivity after 3H-thymidine or 3H-deoxyadenosine); type: cell-based, menschlichen; details: 4 days, then 24 h label, mean ± SD of five experiments
Experimental: as §1

[4] = nucleoside 0,01 µM, 4 days + 24 h, mean ± SD of five experiments
[5] = nucleoside 0,1 µM, 4 days + 24 h, mean ± SD of five experiments
[6] = nucleoside 0,01 µM, % of control without nucleoside (100)
[7] = nucleoside 0,1 µM, % of control without nucleoside (100)
[8] = nucleoside 0,03 µM, 4 days + 24 h, mean ± SD of five experiments
[9] = nucleoside 0,3 µM, 4 days + 24 h, mean ± SD of five experiments
[10] = nucleoside 0,03 µM, % of control without nucleoside (100)
[11] = nucleoside 0,3 µM, % of control without nucleoside (100)
[12] = nucleoside 0,003 µM, 4 days + 24 h, mean ± SD of five experiments
[13] = nucleoside 0,003 µM, % of control without nucleoside (100)
[14] = nucleoside 1,0 µM, 4 days + 24 h, mean ± SD of five experiments
[15] = nucleoside 1,0 µM, % of control without nucleoside (100)
[16] = nucleoside 3,0 µM, 4 days + 24 h, mean ± SD of five experiments
[17] = nucleoside 3,0 µM, % of control without nucleoside (100)

| SMILES | HBsAg [2, 4] | HBsAg [2, 5] | HBsAg [2, 6] | HBsAg [2, 7] | HBsAg [2, 8] | HBsAg [2, 9] | HBsAg [2, 10] | HBsAg [2, 11] | HBsAg [2, 12] | HBsAg [2, 13] | HBsAg [2, 14] | HBsAg [2, 15] | HBsAg [2, 16] | HBsAg [2, 17] | ^3H-DNA ([3]; nucleoside 0,01 µM) | ^3H-DNA ([3]; nucleoside 0,1 µM) | ^3H-DNA ([3]; nucleoside 0,03 µM) | ^3H-DNA ([3]; nucleoside 0,3 µM) | ^3H-DNA ([3]; nucleoside 0,003 µM) | ^3H-DNA ([3]; nucleoside 1,0 µM) | further results |
| --- | --- | --- | --- | --- | --- | --- | --- | --- | --- | --- | --- | --- | --- | --- | --- | --- | --- | --- | --- | --- | --- |
| Nc1ncnc2c1ncn2[C@H]1C=C[C@@H](CO)O1 [2′,3′-Didehydro-2′,3′-didesoxyadenosin, 9-(2,3-Didesoxy-β-D-glycero-pent-2-enofuranosyl)adenin] | 12,4 ± 1,8 ng/ml | 0,5 ± 0,2 ng/ml | 71% | 3% | 4,7 ± 0,6 ng/ml | < 0,1 ng/ml | 27% | < 1% | 16,9 ± 2,6 ng/ml | 96% | < 0,1 ng/ml | < 1% | < 0,1 ng/ml | < 1% | 17215 ± 1760 dpm/Kultur | 16230 ± 1745 dpm/Kultur | 18975 ± 1957 dpm/Kultur | 19400 ± 1926 dpm/Kultur | 19650 ± 1935 dpm/Kultur | 9930 ± 1130 dpm/Kultur | CD₅₀ ([1]; human, 48 h): 48 µM; ^3H-DNA ([3]; nucleoside 3,0 µM): 4265 ± 555 dpm/Kultur |
| Cc1cn([C@H]2C[C@H](N)[C@@H](CO)O2)c(=O)nc1N [2′,3′-Didesoxy-3′-amino-5-methylcytidin] | 8,5 ± 1,3 ng/ml | 4,8 ± 0,6 ng/ml | 44% | 25% | 7,0 ± 1,1 ng/ml | 3,2 ± 0,4 ng/ml | 36% | 17% | 13,9 ± 2,9 ng/ml | 72% | 0,3 ± 0,1 ng/ml | 2% | < 0,1 ng/ml | < 1% | 15445 ± 1830 dpm/Kultur | 14350 ± 1570 dpm/Kultur | 14180 ± 1650 dpm/Kultur | 12160 ± 1860 dpm/Kultur | 16020 ± 1790 dpm/Kultur | 8150 ± 1125 dpm/Kultur | CD₅₀ ([1]; human, 48 h): 1,2 µM; ^3H-DNA ([3]; nucleoside 3,0 µM): 2100 ± 430 dpm/Kultur |
| Cc1cn([C@H]2C[C@H](Cl)[C@@H](CO)O2)c(=O)nc1N [2′,3′-Didesoxy-3′chlor-5-methylcytidin, 3′-Chlor-2′,3′-didesoxy-5-methylcytidin] | 9,6 ± 1,2 ng/ml | 3,4 ± 0,4 ng/ml | 50% | 18% | 7,1 ± 0,8 ng/ml | 3,2 ± 0,5 ng/ml | 37% | 17% | 18,5 ± 2,6 ng/ml | 96% | 0,4 ± 0,1 ng/ml | 2% | < 0,1 ng/ml | < 1% | 14820 ± 1550 dpm/Kultur | 15185 ± 1735 dpm/Kultur | 14370 ± 1620 dpm/Kultur | 13895 ± 1540 dpm/Kultur | 13450 ± 1465 dpm/Kultur | 12270 ± 1590 dpm/Kultur | CD₅₀ ([1]; MT4 cells, 50 % inhibition of cell multiplication after 48 h): 625 µM; ^3H-DNA ([3]; nucleoside 3,0 µM): 10065 ± 1855 dpm/Kultur |
